Data: PubChem BioAssay (NCI)
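Exposure lasted 48 hours, with cells grown in 96-well plates and compounds tested at five concentrations. Definition used: TGI = concentration required for complete inhibition of growth.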

Legend:
Assay in all cases: inhibition of tumour cell growth, NCI panel, 48 h
786-0 renal = test system: 786-0 renal
A498 renal = test system: A498 renal
A549 NSCLC = test system: A549 NSCLC
ACHN renal = test system: ACHN renal
BT-549 breast = test system: BT-549 breast
CAKI-1 renal = test system: CAKI-1 renal
CCRF-CEM leukemia = test system: CCRF-CEM leukemia
COLO 205 colon = test system: COLO 205 colon
DU-145 prostate = test system: DU-145 prostate
EKVX NSCLC = test system: EKVX NSCLC
HCC-2998 colon = test system: HCC-2998 colon
HCT-116 colon = test system: HCT-116 colon
HCT-15 colon = test system: HCT-15 colon
HL-60(TB) leukemia = test system: HL-60(TB) leukemia
HOP-62 NSCLC = test system: HOP-62 NSCLC
HOP-92 NSCLC = test system: HOP-92 NSCLC
HS 578T breast = test system: HS 578T breast
HT29 colon = test system: HT29 colon
IGROV1 ovarian = test system: IGROV1 ovarian
K-562 leukemia = test system: K-562 leukemia
KM12 colon = test system: KM12 colon
LOX IMVI melanoma = test system: LOX IMVI melanoma
M14 melanoma = test system: M14 melanoma
MALME-3M melanoma = test system: MALME-3M melanoma
MCF7 breast = test system: MCF7 breast
MDA-MB-231 breast = test system: MDA-MB-231 breast
MDA-MB-435 = test system: MDA-MB-435
MDA-N = test system: MDA-N
MOLT-4 leukemia = test system: MOLT-4 leukemia
NCI-H226 lung = test system: NCI-H226 lung
NCI-H23 lung = test system: NCI-H23 lung
NCI-H460 lung = test system: NCI-H460 lung
NCI-H522 lung = test system: NCI-H522 lung
NCI/ADR-RES ovarian = test system: NCI/ADR-RES ovarian
OVCAR-3 ovarian = test system: OVCAR-3 ovarian
OVCAR-5 ovarian = test system: OVCAR-5 ovarian
OVCAR-8 ovarian = test system: OVCAR-8 ovarian
PC-3 prostate = test system: PC-3 prostate
RPMI-8226 leukemia = test system: RPMI-8226 leukemia
SF-268 CNS = test system: SF-268 CNS
SF-295 CNS = test system: SF-295 CNS
SF-539 CNS = test system: SF-539 CNS
SK-MEL-2 melanoma = test system: SK-MEL-2 melanoma
SK-MEL-28 melanoma = test system: SK-MEL-28 melanoma
SK-MEL-5 melanoma = test system: SK-MEL-5 melanoma
SK-OV-3 ovarian = test system: SK-OV-3 ovarian
SN12C renal = test system: SN12C renal
SNB-19 CNS = test system: SNB-19 CNS
SNB-75 CNS = test system: SNB-75 CNS
SW-620 colon = test system: SW-620 colon
T-47D breast = test system: T-47D breast
TK-10 renal = test system: TK-10 renal
U251 CNS = test system: U251 CNS
UACC-257 melanoma = test system: UACC-257 melanoma
UACC-62 melanoma = test system: UACC-62 melanoma
UO-31 renal = test system: UO-31 renal
OVCAR-4 ovarian = test system: OVCAR-4 ovarian
RXF 393 renal = test system: RXF 393 renal

`CNC(=O)CCCNC(=O)CCCC(=O)N(C)C` was tested, and the TGI (786-0 renal) was > 100 µM, the TGI (A498 renal) was > 100 µM and the TGI (A549 NSCLC) was > 100 µM. The TGI (ACHN renal) was > 100 µM, the TGI (BT-549 breast) was > 100 µM and the TGI (CAKI-1 renal) was > 100 µM. The TGI (CCRF-CEM leukemia) was > 100 µM, the TGI (COLO 205 colon) was > 100 µM and the TGI (DU-145 prostate) was > 100 µM. For the same compound, the TGI (EKVX NSCLC) was > 100 µM, the TGI (HCC-2998 colon) was > 100 µM and the TGI (HCT-116 colon) was > 100 µM. For the same compound, the TGI (HCT-15 colon) was > 100 µM, the TGI (HL-60(TB) leukemia) was > 100 µM and the TGI (HOP-62 NSCLC) was > 100 µM. The TGI (HOP-92 NSCLC) was > 100 µM, the TGI (HS 578T breast) was > 100 µM and the TGI (HT29 colon) was > 100 µM. The TGI (IGROV1 ovarian) was > 100 µM, the TGI (K-562 leukemia) was > 100 µM and the TGI (KM12 colon) was > 100 µM. For the same compound, the TGI (LOX IMVI melanoma) was > 100 µM, the TGI (M14 melanoma) was > 100 µM and the TGI (MALME-3M melanoma) was > 100 µM. For the same compound, the TGI (MCF7 breast) was > 100 µM, the TGI (MDA-MB-231 breast) was > 100 µM and the TGI (MDA-MB-435) was > 100 µM. For the same compound, the TGI (MDA-N) was > 100 µM, the TGI (MOLT-4 leukemia) was > 100 µM and the TGI (NCI-H226 lung) was > 100 µM. The TGI (NCI-H23 lung) was > 100 µM, the TGI (NCI-H460 lung) was > 100 µM and the TGI (NCI-H522 lung) was > 100 µM. For the same compound, the TGI (NCI/ADR-RES ovarian) was > 100 µM, the TGI (OVCAR-3 ovarian) was > 100 µM and the TGI (OVCAR-5 ovarian) was > 100 µM. For the same compound, the TGI (OVCAR-8 ovarian) was > 100 µM, the TGI (PC-3 prostate) was > 100 µM and the TGI (RPMI-8226 leukemia) was > 100 µM. The TGI (SF-268 CNS) was > 100 µM, the TGI (SF-295 CNS) was > 100 µM and the TGI (SF-539 CNS) was > 100 µM. The TGI (SK-MEL-2 melanoma) was > 100 µM, the TGI (SK-MEL-28 melanoma) was > 100 µM and the TGI (SK-MEL-5 melanoma) was > 100 µM. The TGI (SK-OV-3 ovarian) was > 100 µM, the TGI (SN12C renal) was > 100 µM and the TGI (SNB-19 CNS) was > 100 µM. For the same compound, the TGI (SNB-75 CNS) was > 100 µM, the TGI (SW-620 colon) was > 100 µM and the TGI (T-47D breast) was > 100 µM. The TGI (TK-10 renal) was > 100 µM, the TGI (U251 CNS) was > 100 µM and the TGI (UACC-257 melanoma) was > 100 µM. The TGI (UACC-62 melanoma) was > 100 µM and the TGI (UO-31 renal) was > 100 µM.
In the case of `CCCCn1c(-c2ccc([N+](=O)[O-])cc2)cs/c1=N/N=C1\C(=O)Nc2ccc(Br)cc21`, the TGI (786-0 renal) is reported as 29.8 µM, the TGI (A498 renal) is reported as 34.3 µM and the TGI (A549 NSCLC) is reported as 85.8 µM. It also gave a TGI (ACHN renal) of 31.5 µM, a TGI (BT-549 breast) of 51.6 µM and a TGI (CAKI-1 renal) of 63.2 µM. The TGI (CCRF-CEM leukemia) was > 100 µM, the TGI (COLO 205 colon) was 28.7 µM and the TGI (DU-145 prostate) was 30 µM. For the same compound, the TGI (EKVX NSCLC) was 79.3 µM, the TGI (HCC-2998 colon) was 34.7 µM and the TGI (HCT-116 colon) was 29.3 µM. For the same compound, the TGI (HCT-15 colon) was > 100 µM, the TGI (HL-60(TB) leukemia) was 85.9 µM and the TGI (HOP-62 NSCLC) was 37.9 µM. For the same compound, the TGI (HOP-92 NSCLC) was 73.3 µM, the TGI (HS 578T breast) was > 100 µM and the TGI (HT29 colon) was 33.1 µM. The TGI (IGROV1 ovarian) was > 100 µM, the TGI (K-562 leukemia) was 73.1 µM and the TGI (KM12 colon) was 38.2 µM. The TGI (LOX IMVI melanoma) was 39 µM, the TGI (M14 melanoma) was 27.1 µM and the TGI (MALME-3M melanoma) was > 100 µM. It also gave a TGI (MCF7 breast) of 17.7 µM, a TGI (MDA-MB-231 breast) of 32.7 µM and a TGI (MDA-MB-435) of 37.3 µM. The TGI (MDA-N) was 45.2 µM, the TGI (MOLT-4 leukemia) was 46.5 µM and the TGI (NCI-H226 lung) was 38.3 µM. For the same compound, the TGI (NCI-H23 lung) was 33.1 µM, the TGI (NCI-H460 lung) was 38.3 µM and the TGI (NCI-H522 lung) was 36.7 µM. It also gave a TGI (NCI/ADR-RES ovarian) of 37.4 µM, a TGI (OVCAR-3 ovarian) of 39.8 µM and a TGI (OVCAR-4 ovarian) of 31.8 µM. For the same compound, the TGI (OVCAR-5 ovarian) was > 100 µM, the TGI (OVCAR-8 ovarian) was > 100 µM and the TGI (RXF 393 renal) was 22.5 µM. The TGI (SF-268 CNS) was > 100 µM, the TGI (SF-295 CNS) was 61.2 µM and the TGI (SF-539 CNS) was 28 µM. For the same compound, the TGI (SK-MEL-28 melanoma) was > 100 µM, the TGI (SK-MEL-5 melanoma) was 27.8 µM and the TGI (SK-OV-3 ovarian) was 48.8 µM. For the same compound, the TGI (SN12C renal) was 11.4 µM, the TGI (SNB-19 CNS) was 69.3 µM and the TGI (SNB-75 CNS) was 59.8 µM. For the same compound, the TGI (SW-620 colon) was > 100 µM, the TGI (T-47D breast) was 35.1 µM and the TGI (TK-10 renal) was 34 µM. The TGI (U251 CNS) was 22.9 µM, the TGI (UACC-257 melanoma) was 47.2 µM and the TGI (UACC-62 melanoma) was 76.1 µM. The TGI (UO-31 renal) was 34.2 µM.
For `Cn1c2ccccc2c(=O)c2c(O)cc3c(c21)C=CC1(CCCCC1)O3`, the TGI (786-0 renal) was > 10 µM, the TGI (A498 renal) was > 10 µM and the TGI (A549 NSCLC) was > 10 µM. For the same compound, the TGI (ACHN renal) was > 10 µM, the TGI (BT-549 breast) was > 10 µM and the TGI (CAKI-1 renal) was > 10 µM. For the same compound, the TGI (CCRF-CEM leukemia) was > 10 µM, the TGI (COLO 205 colon) was > 10 µM and the TGI (DU-145 prostate) was > 10 µM. The TGI (EKVX NSCLC) was > 10 µM, the TGI (HCC-2998 colon) was > 10 µM and the TGI (HCT-116 colon) was > 10 µM. The TGI (HCT-15 colon) was > 10 µM, the TGI (HOP-62 NSCLC) was > 10 µM and the TGI (HOP-92 NSCLC) was > 10 µM. For the same compound, the TGI (HS 578T breast) was > 10 µM, the TGI (HT29 colon) was > 10 µM and the TGI (IGROV1 ovarian) was > 10 µM. For the same compound, the TGI (K-562 leukemia) was > 10 µM, the TGI (KM12 colon) was > 10 µM and the TGI (LOX IMVI melanoma) was > 10 µM. The TGI (M14 melanoma) was > 10 µM, the TGI (MALME-3M melanoma) was > 10 µM and the TGI (MCF7 breast) was > 10 µM. For the same compound, the TGI (MDA-MB-231 breast) was > 10 µM, the TGI (MDA-MB-435) was > 10 µM and the TGI (MDA-N) was > 10 µM. For the same compound, the TGI (MOLT-4 leukemia) was > 10 µM, the TGI (NCI-H226 lung) was > 10 µM and the TGI (NCI-H23 lung) was > 10 µM. The TGI (NCI-H460 lung) was > 10 µM, the TGI (NCI-H522 lung) was > 10 µM and the TGI (NCI/ADR-RES ovarian) was > 10 µM. For the same compound, the TGI (OVCAR-3 ovarian) was > 10 µM, the TGI (OVCAR-4 ovarian) was > 10 µM and the TGI (OVCAR-5 ovarian) was > 10 µM. For the same compound, the TGI (OVCAR-8 ovarian) was > 10 µM, the TGI (PC-3 prostate) was > 10 µM and the TGI (RPMI-8226 leukemia) was > 10 µM. The TGI (RXF 393 renal) was > 10 µM, the TGI (SF-268 CNS) was > 10 µM and the TGI (SF-295 CNS) was > 10 µM. The TGI (SF-539 CNS) was > 10 µM, the TGI (SK-MEL-2 melanoma) was > 10 µM and the TGI (SK-MEL-28 melanoma) was > 10 µM. The TGI (SK-MEL-5 melanoma) was > 10 µM, the TGI (SK-OV-3 ovarian) was > 10 µM and the TGI (SN12C renal) was > 10 µM. The TGI (SNB-19 CNS) was > 10 µM, the TGI (SNB-75 CNS) was > 10 µM and the TGI (SW-620 colon) was > 10 µM. The TGI (T-47D breast) was > 10 µM, the TGI (TK-10 renal) was > 10 µM and the TGI (U251 CNS) was > 10 µM. For the same compound, the TGI (UACC-257 melanoma) was > 10 µM, the TGI (UACC-62 melanoma) was > 10 µM and the TGI (UO-31 renal) was > 10 µM.
